{"source": "patent US20120003298A1", "about": "“METHODS FOR INDUCING AN IMMUNE RESPONSE” (priority 2010, published 2012)", "key": {"[1]": {"test_system": "Cutaneous Squamous Cell Carcinoma (SCC) cell lines SCL-I, SCL-II, SCC-12, SCC-13", "description": "SCC cells are grown under standard conditions (10% FBS).\nTime and dose dependency of effects on total cell numbers have been investigated by real-time cell analysis, which is based on continuous monitoring of electric conductance in microtiter wells (E-plates, Roche), which corresponds to the cell numbers. […] For these assays 4 cell lines may be used to obtain a representative overview on the effects on SCC cells."}, "[2]": {"test_system": "AY-27 rat bladder cancer cell-line", "experiment": "Orthotopic rat bladder cancer model, intravesical instillation", "conditions": "of 14 per group"}, "[3]": {"target": "T1, CYP2C9 (Homo sapiens, UniProt P11712)", "T1 construct": "purchased Gentest", "T1 sequence (P11712 whole entry)": "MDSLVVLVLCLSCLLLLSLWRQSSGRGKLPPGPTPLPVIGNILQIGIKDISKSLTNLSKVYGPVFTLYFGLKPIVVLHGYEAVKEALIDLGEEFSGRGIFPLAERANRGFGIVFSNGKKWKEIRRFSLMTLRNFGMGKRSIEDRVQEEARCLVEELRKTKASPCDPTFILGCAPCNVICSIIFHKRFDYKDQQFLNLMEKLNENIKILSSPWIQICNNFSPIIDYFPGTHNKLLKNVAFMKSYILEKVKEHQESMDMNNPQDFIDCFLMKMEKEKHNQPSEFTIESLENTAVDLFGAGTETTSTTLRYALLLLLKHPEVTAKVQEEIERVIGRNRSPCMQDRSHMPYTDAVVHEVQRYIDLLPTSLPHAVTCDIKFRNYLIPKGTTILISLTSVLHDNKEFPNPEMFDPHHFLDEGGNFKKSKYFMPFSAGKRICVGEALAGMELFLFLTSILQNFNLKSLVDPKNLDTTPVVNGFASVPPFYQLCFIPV", "experiment": "Fluorescent High Throughput P450 assay, CYP2C9", "type": "biochemical", "description": "(§1) Inhibition of the P450 isoforms was measured in specific assays using specific substrates that become fluorescent upon CYP metabolism. Compounds, dissolved in ACN (acetonitrile) (CYP2E1, CYP2C8, CYP2B6, CYP3A5) or DMSO (all remaining isoforms), were tested in duplicate (n=2) in concentration-response curves (eight concentrations) in a 96-well plate containing incubation/NADPH regenerating buffer. Specific isoenzymes and substrates were added and incubated at 37° C. Reactions were terminated at different times, depending on the assays, and plates read on a Fluoroskan Ascent at the appropriate emission/excitation wavelengths. Concentration-response curves performed in duplicate for known inhibitors for each isoenzyme were tested in every assay as positive control."}, "[4]": {"test_system": "human PBMCs", "experiment": "IL-6 secretion in human PBMCs, two batches of Compound A and SC12 (Example 4)", "type": "cell-based", "conditions": "5 months storage in DMSO at 4° C.", "description": "PBMCs were purified from two donors and plated into 96 well plates at 2×10^5 cells/well in RPMI media including human 2% heat inactivated AB serum, glutamine, Pen-strep and β-mercaptoethanol. The cells were treated with TLR7 agonists for 24 h in 4 doses. The conditioned media was removed for ELISA analyses for IL-6, and the EC50 value determined for each compound and each batch.\nAll compounds were tested in four concentrations (10-1-0.1-0.01 micromolar).\nConcentrations of IL-6 were determined by ELISA from R&D Systems using the Microsoft Excel software. The results were analyzed in Graph Pad Prism in order to prepare dose-response curves, and for determination of EC50 values."}, "[5]": {"experiment": "Intravenous pharmacokinetics in the mouse", "description": "An IV bolus was administered into the caudal vein at a dose of 1 mg/kg in 5 ml. The compound weight was 2.08/10.04 ml. 24 mice were studied. Sampling was obtained by exsanguination under anesthesia, at 5, 15, 30, 60, 240, and 480 minutes, and at 24 hours. […] Animals were sacrificed using ethyl ether at the conclusion of the experiment.\nSample preparation: In a Sirocco filter plate, 100 microliters of plasma were added to 300 microliters of ACN/MeOH spiked with 5 microliters of IS (IV298 10 micrograms per ml) plus 10 microliters of 5% H3PO4. The plate was shaken for 10 minutes at 80 rpm and then filtered under vacuum for 5 minutes.\nAnalytical method: LC/MS/MS: Premiere XE, Eluent: water (A) MeOH(B) plus 0.1% HCOOH gradient. 15% B to 100% B from 0.1 to 0.5, then isocratic 100% B up to 1.5 minutes, flow 0.8 ml/min; Column Acquity HPLC BEH C18 1.7 microm 2.1×50 mm, injection volume of 5 microliters in a T column at 50° C. ESI positive, MRM, Extractor 5V; Capillary 3.5 kV; T source 115° C.; T desolv. 450° C.\nData analysis: Non-compartmental analysis WinNonlin 5.1; linear trapezoidal, uniform weight."}, "[6]": {"test_system": "recombinant antigens from Plasmodium falciparum and Mycobacterium ulcerans", "experiment": "Pilot immunization study with adjuvanted recombinant protein antigens", "type": "in vivo, mouse", "protocol": "A pilot immunization study was conducted using Compound A and SC12 adjuvanted protein antigens. The immunization experiments were performed with two recombinant proteins expressed in E. coli. One antigen was derived from the malaria parasite Plasmodium falciparum and the other one from Mycobacterium ulcerans, which cause the ulcerative skin disease Buruli ulcer."}, "[7]": {"test_system": "Salmonella typhimurium TA1535, TA1537, TA98, TA100", "experiment": "Bacterial mutation assay, Salmonella typhimurium", "type": "cell-based", "protocol": "The five tester strains TA1535, TA1537, TA98, TA100 and WP2 uvrA were used. Experiments were performed both in the absence and presence of metabolic activation, using liver S9 fraction from rats pre-treated with phenobarbitone and betanaphthoflavone. SC12 was used as a solution in dimethylsulfoxide (DMSO)."}, "[8]": {"experiment": "In vivo pharmacodynamics, serum cytokines after intravenous injection", "design": "species or system mouse", "conditions": "200 nmol intravenously", "description": "For in vivo pharmacodynamic experiments, 6- to 8-week old C57BU6 mice were intravenously injected with the unconjugated and phospholipid-conjugated TLR7 agonists (200 nmol). Sera were separated and kept at −20° C. until use. The levels of cytokines in the sera were measured by Luminex bead microassay. The minimum detection levels of IL-6 and TNF-alpha were 5 pg/mL and 10 pg/mL, respectively."}, "[9]": {"test_system": "RAW.264 cells", "experiment": "Intracellular uptake in RAW.264 cells, LC-MS", "type": "in vitro ADME", "conditions": "10 microM", "protocol": "5×10^6 RAW.264 cells were adhered overnight in 10 cm tissue culture dishes. […] […] Supernatant (2 ml) and cells (pellets) were collected by trypsinization and frozen at […] for subsequent analysis by LC-MS."}, "[10]": {"test_system": "OVA specific Ig", "experiment": "Adjuvanticity with ovalbumin (OVA), subcutaneous immunization", "type": "in vivo, mouse", "excerpt": "For the adjuvanticity experiments, mice were subcutaneously immunized with 20 pg ovalbumin (OVA) with 10 nmol or 100 nmol (TLR7 agonist equivalent dose) per mouse in various TLR7 conjugates on days 0 and 7. Sera were collected on days 0, 7, 14, 21, 28, 42, and 56. Mice immunized with saline or OVA mixed with vehicle served as controls. Mice were sacrificed on day 56.\nImmunization occurs on day 0 and 7. Serum collection day is on 0, 7, 14, 21, 28, 42 and 56 days."}, "[11]": {"test_system": "plasmacytoid CD11c−/CD123+DCs", "experiment": "FACS, plasmacytoid DC activation in whole blood", "type": "cell-based, human", "conditions": "24 hours; 0.1 and 0.5 uM", "description": "(§2) The FACS analysis for donor 1 and donor 2 was made on another day than donor 3. The compound concentrations were as follows:\n(§3) B cell activation: 2 and 10 uM mDC/pDC: 0.1 and 0.5 uM\n(§4) The FACS analysis was used to identify whether the test compounds could induce activation of B cells, and two different subsets of dendritic cells, namely the myeloid CD11c+/CD123− DCs and the plasmacytoid CD11c−/CD123+DCs. The following markers were studied to identify the activation status of the different subsets:\nThe FACS staining was performed according to the manufacturer's instructions. Lysis of red blood cells was performed before FACS staining in order to minimize auto-florescence. To include as many B cells and DCs in the study as possible the FACS analyses were performed on 500,000 cells in total for each staining. A P1 gate was set only to include relevant cells on FSC vs. SSC (see FIGS. 12-15). The results of the individual analysis were present as Mean Fluorescence Intensity (MFI) values, for certain activation marker in a given gate setting, represent the actual cell subset. The isotype background values have been used to set the gates so that a maximum at 2% of unspecific stained cells could be found in the positive gates.\nThe analysis of pDCs was based on HLA-DR+/CD11c−/CD123+ cells, thus all analyzed cells were included in the HLA-DR+ (P3) gate and CD11c−/CD123+(Q1) gate."}, "[12]": {"experiment": "Stability on storage by HPLC (solid or chloroform solution; temperature, light)", "conditions": "for HPLC % at RRT = 1: SC12", "description": "At this point, a stability study was conducted on batch CH730/16/8g.\nThe samples were analyzed at t=0 and after 20 days."}, "[13]": {"experiment": "Intrabladder application, serum cytokines (Luminex) and histology", "type": "in vivo, mouse", "protocol": "Female C57BU6 mice were anesthetized with ketamine/xylazine. The 50 microliter formulated compounds were intravesically administered for twenty minutes at each treatment. The treatment schedule and doses are in Table 35 and 36, respectively. The levels of cytokines (IL-6, IL-12, and TNF-alpha) were determined by Luminex assay. Paraffin sections were prepared and H & E staining performed."}, "[14]": {"target": "T2, CYP2E1 (Homo sapiens, UniProt P05181)", "T2 construct": "purchased Gentest", "T2 sequence (P05181 whole entry)": "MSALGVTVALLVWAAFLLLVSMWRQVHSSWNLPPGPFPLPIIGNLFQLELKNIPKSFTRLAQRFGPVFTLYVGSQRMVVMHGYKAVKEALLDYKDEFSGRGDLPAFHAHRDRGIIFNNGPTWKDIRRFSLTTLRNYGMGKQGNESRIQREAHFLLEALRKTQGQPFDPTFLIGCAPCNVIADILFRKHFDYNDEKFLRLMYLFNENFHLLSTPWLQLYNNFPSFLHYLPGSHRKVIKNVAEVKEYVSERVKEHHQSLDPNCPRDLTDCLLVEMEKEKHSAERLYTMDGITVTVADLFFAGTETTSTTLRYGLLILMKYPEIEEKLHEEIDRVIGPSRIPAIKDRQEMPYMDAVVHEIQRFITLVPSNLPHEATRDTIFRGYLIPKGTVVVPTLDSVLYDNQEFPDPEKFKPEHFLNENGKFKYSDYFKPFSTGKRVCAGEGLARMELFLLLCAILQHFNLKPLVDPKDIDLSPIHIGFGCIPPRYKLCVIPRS", "experiment": "Fluorescent High Throughput P450 assay, CYP2E1", "type": "biochemical", "description": "as §1"}, "[15]": {"target": "T3, CYP3A4 (Homo sapiens, UniProt P08684)", "T3 construct": "purchased Gentest", "T3 sequence (P08684 whole entry)": "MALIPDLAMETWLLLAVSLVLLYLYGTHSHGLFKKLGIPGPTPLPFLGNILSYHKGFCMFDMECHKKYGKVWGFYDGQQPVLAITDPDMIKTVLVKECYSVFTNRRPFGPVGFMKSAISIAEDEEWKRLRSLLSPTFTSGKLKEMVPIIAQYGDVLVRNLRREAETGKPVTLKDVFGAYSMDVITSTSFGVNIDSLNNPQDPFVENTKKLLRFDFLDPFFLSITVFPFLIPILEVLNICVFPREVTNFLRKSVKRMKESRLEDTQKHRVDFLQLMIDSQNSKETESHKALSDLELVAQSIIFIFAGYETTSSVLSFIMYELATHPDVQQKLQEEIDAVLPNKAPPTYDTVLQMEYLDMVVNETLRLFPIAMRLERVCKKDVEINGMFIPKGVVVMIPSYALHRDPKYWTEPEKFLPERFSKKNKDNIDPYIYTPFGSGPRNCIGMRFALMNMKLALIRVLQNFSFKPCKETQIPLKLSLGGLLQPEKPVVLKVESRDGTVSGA", "experiment": "Fluorescent High Throughput P450 assay, CYP3A4", "type": "biochemical", "description": "as §1"}, "[16]": {"target": "T4, CYP3A5 (Homo sapiens, UniProt P20815)", "T4 construct": "purchased Gentest", "T4 sequence (P20815 whole entry)": "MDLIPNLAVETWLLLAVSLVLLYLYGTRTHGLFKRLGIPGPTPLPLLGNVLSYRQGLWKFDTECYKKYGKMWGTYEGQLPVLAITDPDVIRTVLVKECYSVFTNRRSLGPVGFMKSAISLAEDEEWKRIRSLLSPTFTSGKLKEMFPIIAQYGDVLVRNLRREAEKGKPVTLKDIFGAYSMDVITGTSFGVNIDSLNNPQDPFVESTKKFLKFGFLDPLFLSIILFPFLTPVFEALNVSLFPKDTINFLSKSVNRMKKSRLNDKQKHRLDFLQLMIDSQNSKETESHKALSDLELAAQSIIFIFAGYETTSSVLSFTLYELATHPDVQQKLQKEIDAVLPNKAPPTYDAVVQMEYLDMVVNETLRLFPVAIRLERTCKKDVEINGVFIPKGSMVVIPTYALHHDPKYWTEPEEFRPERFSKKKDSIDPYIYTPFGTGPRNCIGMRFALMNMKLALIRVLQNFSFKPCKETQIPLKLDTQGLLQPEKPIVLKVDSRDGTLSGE", "experiment": "Fluorescent High Throughput P450 assay, CYP3A5", "type": "biochemical", "description": "as §1"}, "[17]": {"test_system": "HLA-DR+/CD20+ B cells", "experiment": "FACS, B cell activation in whole blood", "type": "cell-based, human", "conditions": "24 hours; 2 and 10 uM", "description": "as §2, §3, §4\nB-cells: HLA-DR/CD20/CD40\nThe FACS staining was performed according to the manufacturer's instructions. Lysis of red blood cells was performed before FACS staining in order to minimize auto-florescence. To include as many B cells and DCs in the study as possible the FACS analyses were performed on 500,000 cells in total for each staining. […] The results of the individual analysis were present as Mean Fluorescence Intensity (MFI) values, for certain activation marker in a given gate setting, represent the actual cell subset. The isotype background values have been used to set the gates so that a maximum at 2% of unspecific stained cells could be found in the positive gates.\nThe analysis of expression of the activation marker CD40 on B cells was made on double positive HLA-DR (MHC class II) (P4 gate) and CD20 cells (B cell marker) (P8 gate)."}, "[18]": {"test_system": "PBMCs", "experiment": "IL-6 and TNF-alpha secretion in PBMC model (Model 2), ELISA", "type": "cell-based, human", "conditions": "three donors"}, "[19]": {"experiment": "Single dose intravenous toxicity study in rats", "type": "in vivo, Sprague Dawley rat", "protocol": "An additional group, similarly composed, received the vehicle alone and acted as a control. […] Clinical signs were limited to piloerection and reduced activity, observed on the day of dosing.\nA second group was dosed at 100 mg/kg. […] A third group was then dosed at 85 mg/kg. […] A fourth group was finally dosed at 90 mg/kg. […] Piloerection was observed from Day 2 up to Day 4 of the study.\nIn the main phase, 5 male and 5 female animals were dosed at 90 mg/kg and observed for a period of 14 days. A second group, similarly constituted, received the vehicle alone and acted as control. […] In addition, one male and one female dosed at 90 mg/kg were found dead on Day 2 of the study. Twitches, ataxia, piloerection, reduced activity and hunched posture were the major signs observed in animals before death. […] Piloerection was observed up to Day 3 of the study. A second group, similarly composed, was dosed at 80 mg/kg.\nRecovery occurred by Day 15 and the body weight changes were within the expected range for this species and age of animals at the end of the study. […] Surviving animals were killed at the end of the observation period with carbon dioxide narcosis. All animals, including the early decedents, were subjected to necropsy examination. […] Therefore, the maximum tolerated dose in this study was considered to be 80 mg/kg."}}}
{"smiles": "CCCCCCCCCCCC(=O)OCC(COP(=O)(O)OCCNC(=O)c1ccc(Cn2c(=O)[nH]c3c(N)nc(OCCOC)nc32)cc1)OC(=O)CCCCCCCCCCC", "note": "(centres unmarked) [SC12]", "values": [{"measurement": "cell numbers, real-time cell analysis", "setting": "[1]; FIG. 11", "value": "reduced cell numbers"}, {"measurement": "morphology and proliferation", "setting": "[1]; day 3, 120 microM", "value": "cell detachment, morphological changes and inhibition of proliferation"}, {"measurement": "Number of rat bladders Tumor free", "setting": "[2]", "value": 6}, {"measurement": "Number of rat bladders with pT2 Tumor", "setting": "[2]", "value": 7}, {"measurement": "Number of rat bladders with pTa Tumor", "setting": "[2]", "value": 1}, {"measurement": "Tumor free, share of group", "setting": "[2]", "value": 42.9, "unit": "%"}, {"measurement": "pT2 Tumor, share of group", "setting": "[2]", "value": 50.0, "unit": "%"}, {"measurement": "pTa Tumor, share of group", "setting": "[2]", "value": 7.1, "unit": "%"}, {"measurement": "inhibition of CYP2C9", "setting": "[3]", "value": "weak inhibition"}, {"measurement": "activity after storage", "setting": "[4]", "value": "have not lost activity"}, {"measurement": "adverse behavioral effects", "setting": "[5]; IV 1 mg/kg", "value": "No adverse behavioral effects were noted"}, {"measurement": "AUC INF obs", "setting": "[5]; IV bolus 1 mg/kg, plasma", "value": 12878, "unit": "ng·min/mL"}, {"measurement": "AUClast", "setting": "[5]; IV bolus 1 mg/kg, plasma", "value": 11744, "unit": "ng·min/mL"}, {"measurement": "local side effects", "setting": "[6]; subcutaneous, 10 nMol", "value": "No local side effects"}, {"measurement": "IgG responses against the target antigens", "setting": "[6]; three subcutaneous immunizations, 20 micrograms antigen with 10 nMol adjuvant", "value": "developed IgG responses"}, {"measurement": "toxicity to tester strains", "setting": "[7]; 50.0-5000 micrograms/plate, absence or presence of S9", "value": "No toxicity was observed with any tester strain at any dose level"}, {"measurement": "reverse mutation", "setting": "[7]; up to 5000 micrograms/plate, absence or presence of S9 metabolism", "value": "does not induce reverse mutation"}, {"measurement": "time course of cytokine induction", "setting": "[8]", "value": "lower but sustained cytokine induction than the free ligand"}, {"measurement": "serum proinflammatory cytokine levels", "setting": "[8]; C57BL/6 mice", "value": "induced similar levels of the proinflammatory cytokines IL-6, IL-12 and TNF-alpha"}, {"measurement": "Intracellular Concentration % of total", "setting": "[9]; Incubation 1 hours", "value": "18.5 % of total"}, {"measurement": "Intracellular Concentration % of total", "setting": "[9]; Incubation 6 hours", "value": "20.6 % of total"}, {"measurement": "Intracellular Concentration % of total", "setting": "[9]; Incubation 18 hours", "value": "21.4 % of total"}, {"measurement": "adjuvant potency, Th1 immune response", "setting": "[10]; 100 nmoles SC12 equivalent to 10 nmoles compound A", "value": "10 times less potent than compound A or compound A*"}, {"measurement": "antigen specific IgG2a", "setting": "[10]; OVA 20 μg with 10 or 100 nmoles, days 0 and 7", "value": "significantly higher than the immunization with OVA alone"}, {"measurement": "OVA-specific IgG1", "setting": "[10]; mouse, in vivo", "value": "not found to induce high levels of OVA-specific IgG1"}, {"measurement": "CD80 expression in pDCs (MFI, words)", "setting": "[11]", "value": "slightly higher CD80 expression than compound A"}, {"measurement": "CD86 expression in pDCs (MFI, words)", "setting": "[11]", "value": "tendency to induce higher CD86 expression than compound A"}, {"measurement": "HPLC % at RRT = 1", "setting": "[12]; Solid, RT and light, t = 20 days", "value": "RRT = 1: 87.8%"}, {"measurement": "HPLC % at RRT = 1", "setting": "[12]; Solid, external T and light, t = 20 days", "value": "RRT = 1: 84.0%"}, {"measurement": "HPLC % at RRT = 1", "setting": "[12]; Solution in CHCl3, RT and light, t = 0", "value": "RRT = 1: 90.3%"}, {"measurement": "HPLC % at RRT = 1", "setting": "[12]; Solution in CHCl3, RT and light, t = 20 days", "value": "RRT = 1: 88.0%"}, {"measurement": "stability compared with compound A", "setting": "[12]; storage 20 days", "value": "more stable than compound A"}, {"measurement": "serum IL-12", "setting": "[13]; day 0, 2 hour time point, intravesical about 207 nmoles in 50 μl", "value": "elevated levels of IL-12"}, {"measurement": "bladder histology, cell infiltration", "setting": "[13]; day 7", "value": "immune cell infiltration in the bladder"}, {"measurement": "inhibition of CYP2E1", "setting": "[14]", "value": "moderate inhibition"}, {"measurement": "inhibition of CYP3A4", "setting": "[15]", "value": "moderate inhibition"}, {"measurement": "inhibition of CYP3A5", "setting": "[16]", "value": "moderate inhibition"}, {"measurement": "CD40 expression on B cells (MFI, words)", "setting": "[17]", "value": "induced CD40 expression in donor 1 and donor 2 in all tested concentrations"}, {"measurement": "potency for TNF-alpha secretion", "setting": "[18]", "value": "on average slightly more potent than compound A"}, {"measurement": "mortality and clinical signs", "setting": "[19]; 76 mg/kg, preliminary phase", "value": "No mortality occurred"}, {"measurement": "mortality and clinical signs", "setting": "[19]; 80 mg/kg, main phase", "value": "No mortality occurred and no clinical signs were recorded"}, {"measurement": "mortality and clinical signs", "setting": "[19]; 85 mg/kg, preliminary phase", "value": "Piloerection was observed on the day of dosing"}, {"measurement": "necropsy examination", "setting": "[19]; 90 mg/kg and 80 mg/kg", "value": "No abnormalities were observed at necropsy examination"}, {"measurement": "mortality and clinical signs", "setting": "[19]; 90 mg/kg, main phase, 5 male and 5 female", "value": "Three males treated at 90 mg/kg died immediately after dosing, while two females died at 2 hours post-dose"}, {"measurement": "mortality and clinical signs", "setting": "[19]; 90 mg/kg, preliminary phase", "value": "No mortality occurred"}, {"measurement": "mortality and clinical signs", "setting": "[19]; 100 mg/kg, preliminary phase", "value": "Both animals died at dosing"}, {"measurement": "body weight", "setting": "[19]; surviving animals at 90 mg/kg and animals at 80 mg/kg", "value": "slight to moderate body weight loss on Day 2"}]}
